The structures appear in SMILES notation.

Data set [1] has as its system phosphorylated histone 2AX (pH2AX). Description: pH2AX immunoblot in mouse progeroid cells. The format is cell-based. The following applies: Lmna^G609G/G609G fibroblasts, 5 µM, relative to GAPDH. The procedure: (§1) Confocal fluorescence microscopy images are representative of 2 independent experiments. […] Representative cropped immunoblots are shown. […] MW, molecular weight (in kDa) markers. (C) PROTAC 2 decreases senescence‐associated β‐galactosidase (SA‐βgal) activity, interleukin (IL) 1α and p16 senescent markers. Lmna^G609G/G609G (G609G) or Lmna^+/+ (WT) fibroblasts were incubated with vehicle or compound 2 (5 µM). […] Data were analysed using one‐way ANOVA followed by Dunnett's post–hoc test. ^*, p < 0.05; ^**, p < 0.01, ^***, p < 0.001, ^****, p < 0.0001 vs G609G cells. […]
compound exposure. […] Samples were analysed by electrophoresis in polyacrylamide gels (All Kd SDS-PAGE, BioRad) and the proteins transferred to nitrocellulose membranes (GE Healthcare, Amersham). […]
GAPDH (Cell Signaling, 2118S, 1:5000) and anti-actin (Santa Cruz Biotechnology, sc-376248, 1:500) as antibodies for loading control. […] The bands were quantified by densitometry using the […]
Quantification of different proteins intensity was performed using ImageJ (NIH) except for nuclear rim progerin intensity with Cell Profiler (Broad Institute). […]
SA β-galactosidase activity was determined by the FDG method. […]
A general note: Immunoblotting shows a protein as a band on a membrane.

Data set [2] in a line: Stability in mouse serum. Format: in vitro ADME. From the text:
TABLE 1 Pharmacokinetic parameters of PROTAC 2. | column: Stability (hours) ^b / m‐serum

Data set [3] relates to Lmna^G609G/G609G fibroblasts. Description: Immunocytofluorescence (Ki‐67, lamin A/C) in mouse progeroid cells. Format: cell-based. The following applies: 5 µM. The procedure:
as §1
compound exposure. […]
TBS-T and proteins were visualized by quimioluminiscence (GE Healthcare […]
For immunocytofluorescence studies, mouse or human progeroid cells previously incubated with compound of interest or DMSO were seeded at a density of […] or 1.5 x 10^4 cells/well over 12 mm diameter slide covers respectively in a 12-well plate and were incubated for 24 h at 37 ᵒC with compound of interest. Cells were fixed with 4% formaldehyde (Ki67, pH2AX) or cold methanol (Lamin A/C, H3K9Me3) from Sigma-Aldrich during 20 min and permeabilized with PBS containing 0.2% Triton X-100 (PBS-T, Sigma-Aldrich). Then, cells were blocked with TBS 2% BSA during 30 min at rt, followed by incubation o.n. with anti-lamin A/C (Santa Cruz Biotechnology, SC-376248, […]
at 4 °C. After that, cells were washed with TBS (1x) and incubated in absence of light for 1 h with fluorescent goat anti-mouse (1:500, Alexa Fluor 488, Life Technologies) diluted in TBS with 2% BSA. Finally, cells were washed with TBS (2x) and the slide cover was carefully mounted with Immumount (Thermo Scientific). The visualization was carried out using confocal microscopy (Olympus IX83) equipped with a 40X oil immersion lens and the appropriate excitation and emission filters at the microscopy UCM facilities. […]
7. Senescence-associated (SA) β-galactosidase activity. […]

As to `CC1(C)Oc2cc3oc(=O)ccc3cc2C[C@@H]1OC(=O)CCCCCNc1cccc2c1C(=O)N(C1CCC(=O)NC1=O)C2=O` (some centres unmarked) [compound 2], in data set [1], the “levels of phosphorylated histone 2AX (pH2AX)” value is given as “reduces the levels of phosphorylated histone 2AX”. For the same compound, the “Stability (hours) m‐serum” value in data set [2] came out at 0.28 ± 0.02 h. In data set [3], the “cell proliferation (Ki‐67)” value was “significantly increases cell proliferation”, the “nuclear cell membrane thickness” value is recorded as “decreases nuclear cell membrane thickness” and the “progerin accumulation in the nuclear membrane” value is “decreases progerin accumulation in the nuclear membrane”.

The record behind these values is publication PMC13252604, “First Generation Proteolysis Targeting Chimeras (PROTACs) for the Treatment of Progeria” (Advanced Science, 2026).
